Results taken from patent US20120202856A1, “SUBSTITUTED BENZIMDAZOLE DERIVATIVES USEFUL AS TRPM8 RECEPTOR MODULATORS” (priority 2011, published 2012).
“And” between values parts separate entries of the source, which are not always exact repeats. Identical values can stand only once. Counter-ions that a name gives are not always drawn.

Target: T1, canine TRPM8 (Canis lupus familiaris, UniProt Q1A7N1)
T1 construct: expressed in transfected cells
Assay: In Vitro Canine TRPM8 Functional Assay (intracellular Ca2+ fluorescence, icilin activation, HEK293 cells)
Format: cell-based
Details: HEK293 cells expressing canine TRPM8, icilin activation; individually measured values (batches/salt forms); read-out: IC50 (nM), in vitro TRP M8 Activity
Procedure: The changes in fluorescent signal were monitored by a fluorescence plate reader, either a FLIPR™ (Molecular Devices) or FDSS (Hamamatsu). […] Cells were maintained in 5% CO2 at 37° C. At 24 hr prior to assay, cells were seeded in black wall, clear-base poly-D-lysine coated 384-well plates (BD Biosciences, NJ, USA) at a density of 5,000 cells per well in culture medium and grown overnight in 5% CO2 at 37° C. On assay day, growth media was removed, and cells were loaded with Calcium 3 Dye (Molecular Devices) for 35 min at 37° C., under 5% CO2 and then incubated for 25 min at room temperature and atmosphere. Subsequently, cells were tested for agonist-induced increases in intracellular Ca^2+ levels using FLIPR™ or FDSS. […] Maximal fluorescence intensity (FI) achieved upon addition of icilin was exported from the FLIPR™ or FDSS software and further analyzed using GraphPad Prism 3.02 (Graph Pad Software Inc., CA, U.S.A.). Basal FI was subtracted prior to normalizing data to percent of maximal response. Curves were generated using the average of quadruplicate wells for each data point using nonlinear regression of either sigmoidal dose response or sigmoidal dose response (variable slope). Finally, IC50 values were calculated with the best-fit curve determined by GraphPad Prism

T1 sequence (Q1A7N1 1-1104): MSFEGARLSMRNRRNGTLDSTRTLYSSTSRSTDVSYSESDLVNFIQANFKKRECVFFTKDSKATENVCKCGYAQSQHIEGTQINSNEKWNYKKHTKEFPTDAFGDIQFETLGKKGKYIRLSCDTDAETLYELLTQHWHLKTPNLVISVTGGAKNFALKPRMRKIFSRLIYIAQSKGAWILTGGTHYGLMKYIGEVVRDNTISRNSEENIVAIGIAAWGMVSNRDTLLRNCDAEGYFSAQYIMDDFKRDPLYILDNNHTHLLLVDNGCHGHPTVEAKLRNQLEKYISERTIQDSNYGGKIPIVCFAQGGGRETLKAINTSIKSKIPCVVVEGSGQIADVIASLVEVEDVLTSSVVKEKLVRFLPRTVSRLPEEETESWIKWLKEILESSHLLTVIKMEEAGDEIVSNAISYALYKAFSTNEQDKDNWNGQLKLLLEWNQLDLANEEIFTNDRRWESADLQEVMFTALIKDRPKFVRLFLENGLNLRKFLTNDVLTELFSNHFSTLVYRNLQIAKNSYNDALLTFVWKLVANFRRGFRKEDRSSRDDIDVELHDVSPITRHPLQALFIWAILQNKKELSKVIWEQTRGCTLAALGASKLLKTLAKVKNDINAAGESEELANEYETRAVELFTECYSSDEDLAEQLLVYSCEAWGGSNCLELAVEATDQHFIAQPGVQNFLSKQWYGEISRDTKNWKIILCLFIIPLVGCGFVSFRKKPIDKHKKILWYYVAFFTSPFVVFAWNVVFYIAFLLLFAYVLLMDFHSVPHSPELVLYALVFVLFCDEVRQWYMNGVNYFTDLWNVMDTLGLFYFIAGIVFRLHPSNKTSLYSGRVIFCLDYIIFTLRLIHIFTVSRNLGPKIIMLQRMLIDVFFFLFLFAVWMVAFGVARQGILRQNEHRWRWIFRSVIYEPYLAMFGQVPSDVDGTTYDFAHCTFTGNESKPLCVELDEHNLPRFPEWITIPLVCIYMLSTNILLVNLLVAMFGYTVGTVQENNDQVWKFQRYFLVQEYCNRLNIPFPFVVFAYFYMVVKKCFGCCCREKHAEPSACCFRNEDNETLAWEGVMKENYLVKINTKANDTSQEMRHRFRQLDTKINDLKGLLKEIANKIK

SMILES	IC50
CC(C)(C)c1cc(-c2nc3cc(-c4ccccc4C(F)(F)F)ccc3[nH]2)n(Cc2ccccc2)n1 [Compound 48, 2-(5-tert-Butyl-2-benzyl-2H-pyrazol-3-yl)-5-(2-trifluoromethylphenyl)-1H-benzimidazole sodium salt]	18.4 nM
CC(C)(C)c1cc(-c2nc3cc(-c4ccccc4OC(F)(F)F)ccc3[nH]2)n(Cc2ccccc2)n1 [Compound 49, 2-(5-tert-Butyl-2-benzyl-2H-pyrazol-3-yl)-5-(2-trifluoromethoxyphenyl)-1H-benzimidazole sodium salt]	42.3 nM
Cn1nc(C(C)(C)C)c(Cl)c1-c1nc2cc(-c3ccccc3OC(F)(F)F)ccc2[nH]1 [Compound 51, 2-(5-tert-Butyl-4-chloro-2-methyl-2H-pyrazol-3-yl)-5-(2-trifluoromethoxyphenyl)-1H-benzimidazole sodium salt]	27 nM
Cn1nc(C2(C)CC2)cc1-c1nc2cc(-c3ccccc3C(F)(F)F)ccc2[nH]1 [Compound 52, 2-[2-Methyl-5-(1-methylcyclopropyl)-2H-pyrazol-3-yl]-5-(2-trifluoromethylphenyl)-1H-benzimidazole sodium salt]	17.6 nM
Cn1nc(C2(C)CC2)cc1-c1nc2cc(-c3ccccc3OC(F)(F)F)ccc2[nH]1 [Compound 53, 2-[2-Methyl-5-(1-methylcyclopropyl)-2H-pyrazol-3-yl]-5-(2-trifluoromethoxyphenyl)-1H-benzimidazole sodium salt]	41.7 nM
COc1cccc(OC)c1-c1ccc2[nH]c(-c3cc(C(C)(C)C)nn3C)nc2c1 [Compound 54, 2-(5-tert-Butyl-2-methyl-2H-pyrazol-3-yl)-5-(2,6-dimethoxy-phenyl)-1H-benzimidazole trifluoroacetic acid salt]	3.1 nM
Cc1ccccc1-c1ccc2[nH]c(-c3cc(C(C)(C)C)nn3C)nc2c1 [Compound 55, 2-(5-tert-Butyl-2-methyl-2H-pyrazol-3-yl)-5-o-tolyl-1H-benzimidazole trifluoroacetic acid salt]	5.5 nM
CCc1ccccc1-c1ccc2[nH]c(-c3cc(C(C)(C)C)nn3C)nc2c1 [Compound 56, 2-(5-tert-Butyl-2-methyl-2H-pyrazol-3-yl)-5-(2-ethyl-phenyl)-1H-benzimidazole trifluoroacetic acid salt]	10.7 nM
Cn1nc(C(C)(C)C)cc1-c1nc2cc(-c3ccccc3F)ccc2[nH]1 [Compound 57, 2-(5-tert-Butyl-2-methyl-2H-pyrazol-3-yl)-5-(2-fluoro-phenyl)-1H-benzimidazole trifluoroacetic acid salt]	14.6 nM and 20.7 nM
Cn1nc(C(C)(C)C)cc1-c1nc2cc(-c3ccccc3Cl)ccc2[nH]1 [Compound 59, 2-(5-tert-Butyl-2-methyl-2H-pyrazol-3-yl)-5-(2-chloro-phenyl)-1H-benzimidazole trifluoroacetic acid salt]	8.3 nM
Cn1nc(C(C)(C)C)cc1-c1nc2cc(-c3ccccc3C#N)ccc2[nH]1 [Compound 60, 2-[2-(5-tert-Butyl-2-methyl-2H-pyrazol-3-yl)-1H-benzimidazol-5-yl]-benzonitrile trifluoroacetic acid salt]	11.9 nM
COc1cccc(OC)c1-c1ccc2[nH]c(-c3cc(C(C)(C)C)no3)nc2c1 [Compound 63, 2-(3-tert-Butyl-isoxazol-5-yl)-5-(2,6-dimethoxy-phenyl)-1H-benzimidazole trifluoroacetic acid salt]	5.5 nM
COc1cccc(F)c1-c1ccc2[nH]c(-c3cc(C(C)(C)C)no3)nc2c1 [Compound 64, 2-(3-tert-Butyl-isoxazol-5-yl)-5-(2-fluoro-6-methoxy-phenyl)-1H-benzimidazole trifluoroacetic acid salt]	8.7 nM
Cc1ccccc1-c1ccc2[nH]c(-c3cc(C(C)(C)C)no3)nc2c1 [Compound 65, 2-(3-tert-Butyl-isoxazol-5-yl)-5-o-tolyl-1H-benzimidazole trifluoroacetic acid salt]	15.5 nM
